Measured values from US12685757B2, “Method to increase systemic blood pressure in shock” (GEORGETOWN UNIVERSITY, priority 2019, dated 2026).

Columns and labels:
[1] = system: isolated pressurized (60 mmHg) arteries; assay: Ex vivo contractility of isolated pressurized arteries; design: species or system mice; conditions: arterioles
Method: Ex vivo artery physiology: Skeletal muscle arteries (radial artery branch, artery #18, subscapular branch artery #14) and cerebellar branch, cerebral artery #3) were isolated and cannulated with glass micropipettes secured with monofilament threads. The pipette and bathing solution contained modified PSS (125 mM NaCl, 3 mM KCl, 26 mM NaHCO3, 1.25 mM NaH2PO4, 1 mM MgCl2, 4 mM D-glucose, and 2 mM CaCl2)) aerated with a gas mixture consisting of 95% 02, 5% CO2, to maintain pH (pH 7.4). Arterioles were pressure clamped (60 mmHg) using a custom-built apparatus in a heated imaging chamber (Tokai Hit), viewed with a 10× objective using a Nikon TE2000 microscope and recorded by a Retiga 3000 digital camera (QImaging). The arteriole diameter was measured at several locations along each arteriole using the NIH-ImageJ software's edge-detection plug-in (Diameter). The software automatically detects the distance between edges (by resampling a total of five times from adjacent pixels) yielding a continuous read-out SD of a vessel's diameter.

DRG = assay: nLacZ staining of DRG after systemic TRPV1 agonist (neurotoxicity); type: in vivo; conditions: 50 μg/kg; TRPV1-nLacZ reporter mice; preliminary data
Source text: A potential adverse effect of TRPV1 agonists is toxicity to sensory nerves. Indeed, in vivo administration of the ultrapotent agonist, resiniferatoxin (RTX), or even high doses of capsaicin can lead to destruction of TRPV1+ neurons (Szallasi S and Blumberg P M, “Vanilloid receptor loss in rat sensory ganglia associated with long term desensitization to resiniferatoxin” Neurosci Lett 140 (1)(1992)51-54. In one embodiment, TRPV1 agonists that poorly penetrate the CNS, such as DkTx or BrP-LPA, are employed. In vivo toxicity is tested by the administration of TRPV1 agonists in TRPV1^PLAP-nLacZ mice based on the highest cumulative doses utilized in EXAMPLE 5. One week later, DRG are isolated and analyzed for nLacZ staining. […] This analysis therefore determines TRPV1 agonist neurotoxicity and forms an assay for toxicity limiting strategies. In one embodiment, BrP-LPA is employed as a more hydrophilic molecule than capsaicin with less neurotoxicity. In another embodiment, DkTx, with limited CNS penetration, is employed to avoid neurotoxicity.
X-gal staining. TRPV1^PLAP-nlacZ mice were anesthetized with isoflurane and perfused through the heart using PBS (0.1M, pH 7.3) followed by ice-cold 2-4% buffered paraformaldehyde. […]

## resiniferatoxin
[1]
  response to prolonged application: non-desensitizing response
DRG
  nLacZ staining in DRG: nearly completely abolishes nLacZ staining
